Here are results for twelve molecules from patent US20080045514A1 (Cytovia, Inc., priority 2006, published 2008).

Type in all cases: cell-based
Test [1] deals with human B cell lymphoblastoid cell line Ramos. Nature of the test: Caspase cascade activation (EC50), Ramos. The conditions noted are these: Homo sapiens, RAMOS cells, read-out: caspase potency (EC50) RAMOS. The gist of the method:
(§1)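 Cells at 0.65×10^6 cells/mL exposed to compound at 0.016 to 10 μM final (1% DMSO) for 48 h at 37° C, 5% CO2. Caspase activity then read with 14 μM Ac-DEVD-R110 fluorogenic substrate in lysolecithin/DTT/PIPES pH 7.2 buffer at ex 485/em 530 nm after 3 h at room temperature. EC50 fitted sigmoidally from net RFU ratio to control.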

Test [2] deals with human hepatocellular carcinoma cell line SNU398. The experiment in a line: Caspase cascade activation (EC50), SNU398. The conditions noted are these: Homo sapiens, SNU-398; SNU398 cells; caspase cascade activation; read-out: caspase potency (EC50) SNU398. The essentials:
as §1

Test [3] relates to human leukemia cell line K562. The experiment in a line: Inhibition of cell proliferation (GI50), K562. The conditions noted are these: Homo sapiens; K562 cells, 48 h, CellTiter-Glo. The protocol: (§2) Human breast cancer cell lines T-47D, human hepatocellular carcinoma cell line SNU398, human colon carcinoma cell line HCT116, human lung cancer cell line H1299, human leukemia cell line K562, human lymphoma cell line Raji, human B cell lymphoblastoid cell line Ramos, and human Burkitt's lymphoma cell line Namalwa were grown and harvested as in Example 100. An aliquot of […] of cells (4.4×10^4 cells/mL) was added to a well of a 96-well microtiter plate containing 5 μL of a 10% DMSO in RPMI-1640 media solution containing 10 nM to 100 μM of 3-(2-chlorophenyl)-6-(3,4-methylenedioxyphenyl)-7H-[1,2,4]triazolo[3,4-b][1,3,4]thiadiazine (1 nM to 10 μM final). An aliquot of 45 μL of cells was added to a well of a 96-well microtiter plate containing 5 μL of a 10% DMSO in RPMI-1640 media solution without compound as the control sample for maximal cell proliferation (LMax). The samples were mixed by agitation and then incubated at 37° C. for 48 h in a 5% CO2-95% humidity incubator. After incubation, the samples were removed from the incubator and 25 μL of CellTiter-Glo™ reagent (Promega) was added. The samples were mixed by agitation and incubated at room temperature for 10-15 min. Plates were then read using a luminescent plate reader (Model SPECTRAfluor Plus, Tecan) to give Ltest values.
(§3) The samples were mixed by agitation and then incubated at 37° C. for 0.5 h in a 5% CO2-95% humidity incubator. After incubation, the samples were removed from the incubator and 25 μL of CellTiter-Glo™ reagent (Promega) was added. The samples were mixed by agitation and incubated at […] 10-15 min at room temperature in a 5% CO2-95% humidity incubator. Fluorescence was read as above, (LStart) defining luminescence for initial cell number used as baseline in GI50 determinations.
(§4) Calculation: GI50 (dose for 50% inhibition of cell proliferation) is the concentration where [(Ltest−LStart)/(LMax−LStart)]=0.5.
On the technique in general: In ATP-based viability assays light output follows the ATP content of the culture.

Test [4] deals with human colon carcinoma cell line HCT116. Nature of the test: Inhibition of cell proliferation (GI50), HCT116. The conditions noted are these: Homo sapiens; HCT 116 cells, 48 h, CellTiter-Glo. On the procedure:
as §2, §3, §4

Test [5] has as its system human B cell lymphoblastoid cell line Ramos. The experiment in a line: Inhibition of cell proliferation (GI50), Ramos. The conditions noted are these: Homo sapiens; Ramos cells, 48 h, CellTiter-Glo. The protocol:
as §2, §3, §4

Test [6] deals with human lymphoma cell line Raji. The experiment in a line: Inhibition of cell proliferation (GI50), Raji. The conditions noted are these: Homo sapiens; Raji cells, 48 h, CellTiter-Glo. The protocol: as §2, §3, §4
Test [7] has as its system human lymphoma cell line Raji. The experiment in a line: Caspase cascade activation (EC50), Raji. The conditions noted are these: Homo sapiens, RAJI cells, read-out: caspase potency (EC50) RAJI. The gist of the method: as §1
In test [8] the test system is human Burkitt's lymphoma cell line Namalwa. Nature of the test: Inhibition of cell proliferation (GI50), Namalwa. The conditions noted are these: Homo sapiens, Burkitts lymphoma cell; Namalwa cells, 48 h, CellTiter-Glo. The protocol: as §2, §3, §4
Test [9] relates to human colon carcinoma cell line HCT116. The experiment in a line: Caspase cascade activation (EC50), HCT116. The conditions noted are these: Homo sapiens, HCT-116; HCT116 cells; caspase cascade activation; read-out: caspase potency (EC50) HCT116. The gist of the method: as §1
Test [10] concerns human breast cancer cell line T-47D. Nature of the test: Caspase cascade activation (EC50), T-47D. The conditions noted are these: Homo sapiens; T47D cells; caspase cascade activation; read-out: caspase potency (EC50) T47D. The essentials:
as §1

In test [11] the test system is human Burkitt's lymphoma cell line Namalwa. Nature of the test: Caspase cascade activation (EC50), Namalwa. The conditions noted are these: Homo sapiens, Burkitts lymphoma cell; Namalwa cells; caspase cascade activation; read-out: caspase potency (EC50) Namalwa. The essentials: as §1

Structures are written as SMILES. Where a name gives a salt, the structure may show the parent alone.

What is called EC50 is the midpoint of the concentration-response curve. Broadly, the GI50 is the concentration that inhibits growth by half. A lower GI50 goes with more potent growth inhibition. In the case of `CCOc1ccc(C2=Nn3c(nnc3-c3ccccc3Br)SC2)cc1` [Example A3], the EC50 in test [1] stood at 125 nM; in [2] it was 243 nM; in [7], 268 nM; in test [9], 314 nM; in [10] it was 1080 nM; in test [11] it was 104 nM. Besides, the GI50 in test [3] is 41 nM; in test [4] it was 361 nM; in test [5], 17 nM; in [6], 103 nM; in test [8] it was 79 nM.
Consider `COc1ccccc1-c1nnc2n1N=C(c1ccc(O)cc1)CS2` [Example 7, 6-(4-Hydroxyphenyl)-3-(2-methoxyphenyl)-7H-[1,2,4]triazolo[3,4-b][1,3,4]thiadiazine hydrobromide], for which the EC50 in test [1] was found to be 262 nM; in test [2], 148 nM; in test [7], 478 nM; in [9], 280 nM; in test [10], 173 nM; in [11], 253 nM. The GI50 in test [3] worked out at 219 nM; in test [4], 1180 nM; in [5] it was 176 nM; in test [6], 1000 nM; in [8], 579 nM.
Consider `COc1ccc(C2=Nn3c(nnc3-c3ccc(C)cc3)SC2)cc1` [Example U2], for which the EC50 is 127 nM in test [1]; 86 nM in test [2]; 190 nM in test [7]; 168 nM in [9]; 537 nM in test [10]; 129 nM in [11]. Also, the GI50 in [3] was 72 nM; in [4], 1100 nM; in [5], 100 nM; in test [6], 730 nM; in test [8] it was 256 nM.
For `COc1ccccc1-c1nnc2n1N=C(c1ccc(N3CCOCC3)cc1)CS2` [Example 25, 3-(2-Methoxyphenyl)-6-(4-morpholinophenyl)-7H-[1,2,4]triazolo[3,4-b][1,3,4]thiadiazine], the EC50 in [1] is 275 nM; in [2], 694 nM; in test [7], 511 nM; in [9], 1260 nM; in test [10], 612 nM; in [11], 321 nM. The GI50 in [3] amounted to 317 nM; in test [4], 1980 nM; in test [5], 105 nM; in [6], 285 nM; in test [8], 161 nM.
For `COc1ccc(-c2nnc3n2N=C(c2ccc(N=[N+]=[N-])cc2)CS3)cc1OC` [Example 31, 6-(4-Azidophenyl)-3-(3,4-dimethoxyphenyl)-7H-[1,2,4]triazolo[3,4-b][1,3,4]thiadiazine], the EC50 in test [1] was determined as 520 nM; in test [2], 619 nM; in test [7], 534 nM; in test [9] it was 5550 nM; in test [10], 2390 nM; in test [11], 544 nM. Moreover, the GI50 in [3] turned out to be 581 nM; in test [4] it was 4250 nM; in [5], 503 nM; in test [6], 6330 nM; in test [8] it was 1470 nM.
Consider `CCN(CC)c1ccc(C2=Nn3c(nnc3-c3ccccc3OC)SC2)cc1` [Example 23, 6-(4-Diethylaminophenyl)-3-(2-methoxyphenyl)-7H-[1,2,4]triazolo[3,4-b][1,3,4]thiadiazine], for which the EC50 in test [1] was determined as 27 nM; in test [2], 18 nM; in [7], 27 nM; in [9] it was 26 nM; in [10] it was 32 nM; in test [11], 15 nM. Moreover, the GI50 in test [3] worked out at 2 nM; in [4], 13 nM; in [5] it was 3 nM; in test [6] it was 2 nM; in test [8], 7 nM.
Regarding `CCN(CC)c1ccc(C2=Nn3c(nnc3-c3ccc(OC)cc3OC)SC2)cc1` [Example 27, 6-(4-Diethylaminophenyl)-3-(2,4-dimethoxyphenyl)-7H-[1,2,4]triazolo[3,4-b][1,3,4]thiadiazine], the EC50 in [1] is 55 nM; in test [2], 47 nM; in [7], 46 nM; in [9] it was 55 nM; in test [10] it was 44 nM; in [11], 31 nM. In addition, the GI50 came out at 10 nM in [3]; 23 nM in [4]; 1 nM in test [5]; 3 nM in [6]; 2 nM in [8].
For `COc1ccccc1-c1nnc2n1N=C(c1ccc(OCCO)cc1)CS2` [Example 10, 6-(4-(2-Hydroxyethoxy)phenyl)-3-(2-methoxyphenyl)-7H-[1,2,4]triazolo[3,4-b][1,3,4]thiadiazine], the EC50 in test [1] amounted to 306 nM; in test [2], 267 nM; in test [7], 431 nM; in [9], 612 nM; in [10], 300 nM; in test [11], 254 nM. Further, the GI50 in test [3] worked out at 315 nM; in test [4] it was 1670 nM; in test [5] it was 173 nM; in [6], 746 nM; in test [8], 618 nM.
`COc1ccc(-c2nnc3n2N=C(c2ccc(C)cc2)CS3)cc1OC` [Example 14, 3-(3,4-Dimethoxyphenyl)-6-(4-methylphenyl)-7H-[1,2,4]triazolo[3,4-b][1,3,4]thiadiazine hydrobromide]: the half-maximal effective concentration (EC50) in test [1] is 125 nM; in test [2], 65 nM; in [7], 198 nM; in [9] it was 107 nM; in test [10], 396 nM; in [11], 131 nM. The GI50 was 87 nM in test [3]; 1010 nM in test [4]; 300 nM in test [5]; 838 nM in test [6]; 137 nM in test [8].
Turning to `COc1ccc(C2=Nn3c(nnc3-c3ccccc3C)SC2)cc1` [Example N2, 3-(2-Methylphenyl)-6-(4-methoxyphenyl)-7H-[1,2,4]triazolo[3,4-b][1,3,4]thiadiazine], the EC50 was found to be 29 nM in test [1]; 31 nM in test [2]; 53 nM in [7]; 34 nM in test [9]; 191 nM in test [10]; 41 nM in test [11]. In addition, the GI50 came to 38 nM in test [3]; 171 nM in [4]; 13 nM in [5]; 164 nM in test [6]; 34 nM in test [8].
As for `COc1ccc(C2=Nn3c(nnc3-c3ccc(Br)cc3)SC2)cc1` [Example E3], the EC50 in [1] is 77 nM; in [2] it was 85 nM; in [7], 125 nM; in test [9] it was 157 nM; in test [10], 244 nM; in test [11], 48 nM. Moreover, the concentration for 50% growth inhibition (GI50) was 33 nM in test [3]; 200 nM in [4]; 21 nM in [5]; 66 nM in test [6]; 47 nM in test [8].
For `COc1ccc(-c2nnc3n2N=C(c2ccc(C)cc2)CS3)c(OC)c1` [Example 15, 3-(2,4-Dimethoxyphenyl)-6-(4-methylphenyl)-7H-[1,2,4]triazolo[3,4-b][1,3,4]thiadiazine hydrobromide], the EC50 in test [1] was 8 nM; in test [2] it was 5 nM; in [7], 12 nM; in [9], 8 nM; in test [10] it was 34 nM; in test [11], 7 nM. In addition, the GI50 in test [3] was 4 nM; in [4], 10 nM; in [5], 1 nM; in test [6] it was 4 nM; in [8], 6 nM.
